The text below walks through data of the supplement of paper PMC8967900.
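Further: ALL cell lines in 384-well plates, five doses spanning 10,000-fold, each plate scaled between vehicle and 100 µmol/L benzalkonium chloride controls, sDSS an adapted area-under-curve metric.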

For one test, the system named is COG-LL-319h. The experiment in a line: selective drug sensitivity score (sDSS, relative to normal bone marrow) (sDSS (score)); higher = more potent and effective on the cell line relative to normal bone marrow cells. The note with it: 72 h.
`CC(=O)[C@]1(O)Cc2c(O)c3c(c(O)c2[C@@H](O[C@H]2C[C@H](N)[C@H](O)[C@H](C)O2)C1)C(=O)c1ccccc1C3=O` [Idarubicin] (top concentration 1000 nM): the “selective drug sensitivity score” value was 16.7. Still for that read-out and setting: for `COc1cc2nccc(Oc3ccc(NC(=O)NC4CC4)c(Cl)c3)c2cc1C(N)=O` [Lenvatinib] (top concentration 2500 nM) the value was 6.16; for `N#Cc1ccc(C(c2ccc(C#N)cc2)n2cncn2)cc1` [Letrozole] (top concentration 10000 nM), -0.04. In the case of `CCNCCS(=O)(=O)NC[C@@]1(c2ccccc2)SC(NC(=O)C(C)(C)C)=NN1C(=O)C(C)(C)C` [Litronesib] (top concentration 1000 nM), the “selective drug sensitivity score” value amounted to 22.4. The same measure, in the same setting: for `CC[C@H](C)C(=O)O[C@H]1C[C@@H](C)C=C2C=C[C@H](C)[C@H](CC[C@@H]3C[C@@H](O)CC(=O)O3)[C@H]21` [Lovastatin] (top concentration 10000 nM) the value was -0.1; for `Cn1cc(-c2cnn3c(N)c(Br)c([C@@H]4CCCNC4)nc23)cn1` [MK-8776] (top concentration 2500 nM), 1.04; for `Cc1cnc(-c2ccccc2C(C)C)nc1NCc1ccc(-n2ccnn2)cc1` [ML323] (top concentration 10000 nM), 1.14. For `O=C(CCNC(=O)c1ccc(OC(F)(F)F)cc1)N[C@@H]1CCCc2ccccc21` [ML390] (top concentration 50000 nM), the “selective drug sensitivity score” value was found to be 16.9. Take `CN(C)C(=N)NC(=N)N` [Metformin] (top concentration 100000 nM): the “selective drug sensitivity score” value is -0.02. On the same count and under the same terms, the value for `C[C@H]1C[C@@H]2[C@H]([C@@H](O)C[C@@]3(C)[C@H]2CC[C@]3(O)C(=O)CO)[C@@]2(C)C=CC(=O)C=C12` [Methylprednisolone] (top concentration 10000 nM) was 14.2; that for `FC(F)(F)c1ccc(/C=C/c2nc(COc3ccc(CCCCn4ccnn4)cc3)co2)cc1` [Mubritinib] (top concentration 1000 nM) was 11.1. Still for that read-out and setting: the value for `COc1cc2c(cc1OC(C)C)[C@H](c1ccc(Cl)cc1)N(c1ccc(N(C)C[C@H]3CC[C@H](N4CCN(C)C(=O)C4)CC3)cc1)C(=O)C2` [NVP-CGM097] (top concentration 25000 nM) was 10.8. As for `CCOc1cc2ncc(C#N)c(Nc3ccc(OCc4ccccn4)c(Cl)c3)c2cc1NC(=O)/C=C/CN(C)C` [Neratinib] (top concentration 1000 nM), the “selective drug sensitivity score” value stood at 6.58. The same measure, in the same setting: the value for `COc1ncc(-c2ccc3nccc(-c4ccnnc4)c3c2)cc1NS(=O)(=O)c1ccc(F)cc1F` [Omipalisib] (top concentration 1000 nM) was 9.8.

With `CN1CCN(c2cc(C(=O)Nc3ccc4c(c3)-c3c(c(C(N)=O)nn3-c3ccc(F)cc3)CC4)c(Cl)cn2)CC1` [PHA-408] (top concentration 10000 nM), the “selective drug sensitivity score” value was 5.08. For the compound `OC[C@H]1O[C@@H](n2cnc3c2N=CNC[C@H]3O)C[C@@H]1O` [Pentostatin] (top concentration 10000 nM), the “selective drug sensitivity score” value was 3.06. Same read-out and setting: for `CC(C)N(C[C@H]1O[C@@H](n2cnc3c(N)ncnc32)[C@H](O)[C@@H]1O)[C@H]1C[C@@H](CCc2nc3cc(C(C)(C)C)ccc3[nH]2)C1` [Pinometostat] (top concentration 1000 nM) the value was 0. The same measure, in the same setting: for `Cc1ccc(=O)n(-c2ccccc2)c1` [Pirfenidone] (top concentration 10000 nM) the value was 1.2; for `NCCNc1ccc(NCCN)c2c1C(=O)c1ccncc1C2=O` [Pixantrone] (top concentration 10000 nM), -2.76. Same read-out and setting: for `c1cc(CN2CCCNCCNCCCNCC2)ccc1CN1CCCNCCNCCCNCC1` [Plerixafor] (top concentration 10000 nM) the value was 0. With `O=C(c1ccc(OCCN2CCCCC2)cc1)c1c(-c2ccc(O)cc2)sc2cc(O)ccc12` [Raloxifene] (top concentration 10000 nM), the “selective drug sensitivity score” value was -2.28. Still for that read-out and setting: for `CN(C)C(=O)c1cc2cnc(Nc3ccc(N4CCNCC4)cn3)nc2n1C1CCCC1` [Ribociclib] (top concentration 10000 nM) the value was 2.18; for `CN1CCN(CCOc2cc(OC3CCOCC3)c3c(Nc4c(Cl)ccc5c4OCO5)ncnc3c2)CC1` [Saracatinib] (top concentration 10000 nM), 12.8. The same measure, in the same setting: for `C=CC(=O)Nc1cccc(Nc2nc(Nc3ccc(OCCOC)cc3)ncc2F)c1` [Spebrutinib] (top concentration 1000 nM) the value was -0.06. Regarding `C[C@@H]1CN(Cc2ccc(F)cc2)[C@@H](C)CN1C(=O)c1cc2c(C(=O)C(=O)N(C)C)cn(C)c2cc1Cl` [Talmapimod] (top concentration 10000 nM), the “selective drug sensitivity score” value came to 0. Consider `C[C@@H](C(=O)O)c1ccc(-c2ccccc2)c(F)c1` [Tarenflurbil] (top concentration 10000 nM), for which the “selective drug sensitivity score” value was -0.16. For `CNC(=O)c1cc(COc2nnc(Nc3ccc(Cl)cc3)c3ccoc23)ccn1` [Telatinib] (top concentration 10000 nM), the “selective drug sensitivity score” value was 0. Same read-out and setting: the value for `O=c1sn(-c2cccc3ccccc23)c(=O)n1Cc1ccccc1` [Tideglusib] (top concentration 3000 nM) was -0.3; that for `COc1cc2nccc(Oc3ccc(NC(=O)Nc4cc(C)on4)c(Cl)c3)c2cc1OC` [Tivozanib] (top concentration 10000 nM) was 12.6. Same read-out and setting: for `Cc1cc(Nc2cc(N3CCN(C)CC3)nc(Sc3ccc(NC(=O)C4CC4)cc3)n2)n[nH]1` [Tozasertib] (top concentration 10000 nM) the value was 19.2. The same measure, in the same setting: for `CC1=C(/C=C/C(C)=C/C=C/C(C)=C/C(=O)O)C(C)(C)CCC1` [Tretinoin] (top concentration 10000 nM) the value was -2.4; for `COC(=O)c1ccc2c(c1)[nH]c1ncnc(NCCCN3CCCCC3)c12` [UM729] (top concentration 10000 nM), -0.06. Consider `COc1cc2c(NC3CCN(C(C)C)CC3)nc(N3CCC(F)(F)CC3)nc2cc1OCCCN1CCCC1` [UNC0642] (top concentration 10000 nM), for which the “selective drug sensitivity score” value was -1.44. `O=C(c1ccc(C(=O)N2CCC(N3CCCC3)CC2)c(Nc2ccccc2)c1)N1CCC(N2CCCC2)CC1` [UNC1215] (top concentration 10000 nM): the “selective drug sensitivity score” value was 0. The same measure, in the same setting: the value for `CCCC(CCC)C(=O)O` [Valproic_acid] (top concentration 1000000 nM) was 0. On the same count and under the same terms, the value for `Clc1ccc(Nc2nnc(Cc3ccncc3)c3ccccc23)cc1` [Vatalanib] (top concentration 10000 nM) was 0; that for `CCCS(=O)(=O)Nc1ccc(F)c(C(=O)c2c[nH]c3ncc(-c4ccc(Cl)cc4)cc23)c1F` [Vemurafenib] (top concentration 10000 nM) was 0.36.

Another test deals with LC4-1. The test is described as above. The note with it: 72 h.
`CC(=O)[C@]1(O)Cc2c(O)c3c(c(O)c2[C@@H](O[C@H]2C[C@H](N)[C@H](O)[C@H](C)O2)C1)C(=O)c1ccccc1C3=O` [Idarubicin] (top concentration 1000 nM): the “selective drug sensitivity score” value stood at 4.04. The same measure, in the same setting: the value for `COc1cc2nccc(Oc3ccc(NC(=O)NC4CC4)c(Cl)c3)c2cc1C(N)=O` [Lenvatinib] (top concentration 2500 nM) was -0.24; that for `N#Cc1ccc(C(c2ccc(C#N)cc2)n2cncn2)cc1` [Letrozole] (top concentration 10000 nM) was -0.04. Still for that read-out and setting: the value for `CCNCCS(=O)(=O)NC[C@@]1(c2ccccc2)SC(NC(=O)C(C)(C)C)=NN1C(=O)C(C)(C)C` [Litronesib] (top concentration 1000 nM) was 19.8. `CC[C@H](C)C(=O)O[C@H]1C[C@@H](C)C=C2C=C[C@H](C)[C@H](CC[C@@H]3C[C@@H](O)CC(=O)O3)[C@H]21` [Lovastatin] (top concentration 10000 nM): the “selective drug sensitivity score” value worked out at 0.8. Still for that read-out and setting: the value for `Cn1cc(-c2cnn3c(N)c(Br)c([C@@H]4CCCNC4)nc23)cn1` [MK-8776] (top concentration 2500 nM) was 0.54.

Regarding `Cc1cnc(-c2ccccc2C(C)C)nc1NCc1ccc(-n2ccnn2)cc1` [ML323] (top concentration 10000 nM), the “selective drug sensitivity score” value is 0.54. Same read-out and setting: for `O=C(CCNC(=O)c1ccc(OC(F)(F)F)cc1)N[C@@H]1CCCc2ccccc21` [ML390] (top concentration 50000 nM) the value was 7.4; for `CN(C)C(=N)NC(=N)N` [Metformin] (top concentration 100000 nM), -0.02; for `C[C@H]1C[C@@H]2[C@H]([C@@H](O)C[C@@]3(C)[C@H]2CC[C@]3(O)C(=O)CO)[C@@]2(C)C=CC(=O)C=C12` [Methylprednisolone] (top concentration 10000 nM), 5.9. Still for that read-out and setting: the value for `FC(F)(F)c1ccc(/C=C/c2nc(COc3ccc(CCCCn4ccnn4)cc3)co2)cc1` [Mubritinib] (top concentration 1000 nM) was 4.86. As to `COc1cc2c(cc1OC(C)C)[C@H](c1ccc(Cl)cc1)N(c1ccc(N(C)C[C@H]3CC[C@H](N4CCN(C)C(=O)C4)CC3)cc1)C(=O)C2` [NVP-CGM097] (top concentration 25000 nM), the “selective drug sensitivity score” value came out at 10.1.

Consider `CCOc1cc2ncc(C#N)c(Nc3ccc(OCc4ccccn4)c(Cl)c3)c2cc1NC(=O)/C=C/CN(C)C` [Neratinib] (top concentration 1000 nM), for which the “selective drug sensitivity score” value came out at 3.58. Regarding `COc1ncc(-c2ccc3nccc(-c4ccnnc4)c3c2)cc1NS(=O)(=O)c1ccc(F)cc1F` [Omipalisib] (top concentration 1000 nM), the “selective drug sensitivity score” value is 1.6. Still for that read-out and setting: for `CN1CCN(c2cc(C(=O)Nc3ccc4c(c3)-c3c(c(C(N)=O)nn3-c3ccc(F)cc3)CC4)c(Cl)cn2)CC1` [PHA-408] (top concentration 10000 nM) the value was 3.98; for `OC[C@H]1O[C@@H](n2cnc3c2N=CNC[C@H]3O)C[C@@H]1O` [Pentostatin] (top concentration 10000 nM), -0.44; for `CC(C)N(C[C@H]1O[C@@H](n2cnc3c(N)ncnc32)[C@H](O)[C@@H]1O)[C@H]1C[C@@H](CCc2nc3cc(C(C)(C)C)ccc3[nH]2)C1` [Pinometostat] (top concentration 1000 nM), 0. The same measure, in the same setting: for `Cc1ccc(=O)n(-c2ccccc2)c1` [Pirfenidone] (top concentration 10000 nM) the value was 0.
